Values of other authors as cited in patent publication US11555007B2, “Compositions and methods for the treatment of neurological diseases” (Cellix Bio Private Limited, priority 2018, dated 2023).

System: unipolar or bipolar patients in a major depressive episode
Conditions: intravenous ketamine 0.5 mg/kg versus saline; all 8 treated patients

In the case of `CNC1(c2ccccc2Cl)CCCCC1=O` (stereo not shown) [ketamine, 2-(2-chlorophenyl)-2-(methylamino)cyclohexan-1-one], the “improvement in depressive symptoms” value is listed as “significant improvement in depressive symptoms”.
